Several values for one entry are separate records, joined by “and”; a condition that tells them apart may be missing. Identical values can stand only once. Entries after “also recorded” stand apart in the source; their conditions may differ. No end group written: not given here.
Assays:
mice [1] = assay: Novelty-Suppressed Feeding test (NSF); format: in vivo, mouse; conditions: 4 days; spadin i.v. 10^-6 M, fluoxetine i.p. 3 mg/kg; 3 mg/kg
Procedure: NSF paradigm is a conflict test that elicits competing motivations: the drive to eat and the fear of venturing into the center of a bright arena. Latency to begin eating is used as an index of anxiety- and depression-like behavior. After 4 day treatment (saline or spadin, i.v.) and 24 hours food-deprivation, mice were presented with a food pellet placed in the center of a brightly plastic box (50×50×20 cm). Latency to begin eating was measured as previously described.

[2] = in vivo
Procedure: Since spadin exerted efficient effects after i.p. or i.v. administration, we evaluated its ability to pass through the blood-brain barrier. ^125I-labelled spadin (1 nmol of spadin plus 2×10^6 cpm ^125I-spadin) was i.v. injected and animals were sacrificed 30 min following injection. The brains were rapidly removed and homogenized. The radioactivity recovered in the brain was acid-extracted, quantified and analyzed by HPLC. […] The concentration of spadin recovered into the brain was estimated to stand around 10 nM, a concentration that corresponds to the affinity of spadin for TREK-1 and sufficient to be active on TREK-1 channel activity. This value was also in the same range of the IC50 determined by electrophysiological measurements (FIG. 3C).

TREK-1 = target: T1, TREK-1 (Mus musculus, UniProt P97438); assay: Whole-cell patch-clamp of native currents on β-TC3 cell line; format: cell-based; set-up: expressed in transfected cells; host or cells: COS-7 (DEAE-dextran transfection); conditions: 1 μM spadin; read-out: inhibition of endogenous TREK-1
T1 sequence (P97438 1-426): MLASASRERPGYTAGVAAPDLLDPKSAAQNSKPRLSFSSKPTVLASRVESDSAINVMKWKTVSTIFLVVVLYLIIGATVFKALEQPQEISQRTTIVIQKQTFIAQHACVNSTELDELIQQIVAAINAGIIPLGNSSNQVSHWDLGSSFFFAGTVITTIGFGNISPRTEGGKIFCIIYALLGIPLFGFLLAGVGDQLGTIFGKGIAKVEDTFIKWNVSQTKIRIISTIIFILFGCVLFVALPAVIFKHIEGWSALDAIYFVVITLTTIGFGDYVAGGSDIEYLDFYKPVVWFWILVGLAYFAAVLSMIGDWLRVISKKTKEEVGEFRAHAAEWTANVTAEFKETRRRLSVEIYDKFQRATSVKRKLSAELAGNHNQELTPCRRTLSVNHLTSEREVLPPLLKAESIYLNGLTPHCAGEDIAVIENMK
Procedure: Native currents elicited by these cells were recorded in the whole-cell configuration of the patch-clamp technique (as described for COS-7 cells) and in the presence of K^+ blockers.

mice [3] = assay: Learned Helplessness (LH) test; format: in vivo, mouse; conditions: acute i.v., 10^-6 M, shocked mice
Procedure: LH training was carried out in 2-way shuttle plexiglas boxes (Imetronic). Each box was divided in 2 equal compartments (19.5×10×13 cm) separated by a wall equipped with, a gate (4.7×4.7 cm) that was closed during LH training but opened automatically during shuttle escape testing. LH was induced in shocked group by administering 360 inescapable, 2-s duration footshocks (0.3 mA intensity), administered once every 10 s over a 1-hour session. Scrambled shocks were delivered by a source shock to a grid floor, which was made of stainless steel bars 2 mm in diameter, spaced 4 mm apart. […] 24 hours later, escape testing was performed in the same box, but the animals had the possibility to avoid shocks by moving through the gate to the other side of the box. During testing sessions, all mice were given 30 shuttle escape trials with 30 s intervals between the start of each trial. While on the first five trials, the gate opened at the same time as the shock (0.3 mA), for the 25 remaining trials, the gate opened 2 s after shock onset. Each trial (with a maximal 24 s) duration was terminated when the mouse went into the adjacent compartment. Escape latencies were averaged over 5 trials. Overall escape latencies were computed by averaging escape latencies over 30 trials.

[4] = test system: dentate gyrus of the mouse hippocampus; assay: Hippocampal neurogenesis (BrdU / DCX labeling); format: in vivo
Procedure: Twenty-four hours after the injection of BrdU (120 mg per kg of body weight in a 300 μl bolus), mice were euthanized and transcardially perfused with 4% cold paraformaldehyde. Serial sections of the brains were cut (40 μm) throughout the entire hippocampus on a vibratome (Leica). Every sixth section throughout the hippocampus was processed for BrdU or doublecortin (DCX) immunohistochemistry, as previously described. For each immunodetection, slides were first incubated overnight at 4° C. with a mouse monoclonal anti-BrdU antibody (1:200; Becton-Dickinson) or a goat anti-DCX (1:400, Santa Cruz Laboratories). For chromogenic immunodetection, sections were then incubated for 1 hour in biotin-conjugated species-specific secondary antibodies (1:100; Vector Laboratories) followed by a peroxidase-avidin complex solution according to the manufacturer's protocol. The peroxidase activity of immune complexes was visualized with DAB staining using the VectaStain ABC kit (Vector Laboratories). For fluorescent double-labeling, performed to determine the cell phenotype, sections were incubated overnight at 4° C. with anti-sheep BrdU (1:200, Interchim), anti-goat DCX (1:200, Santa Cruz Laboratories), or an anti-GFAP (Glial Fibrillary acidic protein, marker for astrocytes, 1:250, Dako). […] All BrdU-labeled cells in the granular cell layer and subgranular zone (SGZ) were counted in each section (n=10 and 5 mice per group) at 400× and 1000× magnification under a light microscope (Olympus) by an experimenter blinded to the study code. The total number of BrdU-positive cells per section was multiplied by 6 to obtain the total number of cells per dentate gyrus. The counting of BrdU/DCX labeled cells was performed using a Laser Scanning Confocal Microscope (TCS SP, Leica) equipped with a DMIRBE inverted microscope.

mice [5] = assay: Staircase test; format: in vivo, mouse; conditions: spadin i.p. 10^-5 M, diazepam i.p. 0.5 mg/kg
Procedure: The apparatus comprised an enclosed staircase consisted of five identical steps (2.5 cm in height×11 cm in width×7.5 cm in length), each made of black plastic. The height of the walls was constant (12.5 cm above the stairs) along the entire length of the staircase. Each mouse was placed individually on the floor of the staircase with its back to the staircase. A step was considered climbed only if the mouse placed all four paws on it. Rearing was recorded when the mouse rose on its hind legs either on the step or against the wall. The number of steps ascended and the number of rearings made in a 3-min period were recorded. Results were expressed as ratio of rearing/step numbers.

mice [6] = assay: Tail Suspension Test (TST); format: in vivo, mouse
Procedure: Mice were suspended by the tail. […] The immobility time was recorded during a 6 min test session.

APLPRWSGPIGVSWGLR [spadin]
latency to feed versus saline (mice [1]): significant decrease in latency to feed; also recorded: significantly reduced the latency to feed | amount of spadin recovered in the brain [2]: Identical amounts | inhibition at 1 µM (TREK-1): 36% | reduced escape latencies after training versus saline (mice [3]): 25.4% | BrdU-labelled cells expressing DCX ([4]; 4-day treatment): 85.2% and 85% | number of BrdU-positive cells in the SGZ versus saline ([4]; 4-day treatment, spadin i.p. 10^-5 M): significantly increased by two-fold | number of BrdU-positive cells versus saline ([4]; 15 days): maintained | rearing/step numbers ratio (mice [5]): had no effect | immobility times versus saline (mice [6]; acute, i.v., 10^-6 M, 30 min before test): significantly reduced immobility times | effect in TST (mice [6]; injection in kcnk2-/- mice): did not induce any change | reduction of time spent immobile (mice [6]; subchronic, 4 days, spadin i.v. 10^-6 M, fluoxetine 3 mg/kg): 28.1%

Reference: US20120322060A1, “DIAGNOSIS AND MONITORING TREATMENT OF PSYCHIATRIC DISEASES WITH SPADIN AND RELATED METHODS” (CENTRE NATIONAL DE LE RECHERCHE SCIENTIFIQUE - CNRS -, priority 2011, published 2012)
